Laboratory results as given in a melting point compilation (Tetko et al.).

Row | Structure (SMILES) | melting point [°C]
1 | CC(C)(C)OC(=O)NC(C)(C)C(N)=S | 169 to 171
2 | Cc1cc2n(n1)C(=O)C(C)C(=O)N2 (configuration not stated) | 288 to 290
3 | C=CCn1c(N)c(C(N)=S)sc1=S | 195 to 197
4 | COc1ccc(C(=O)CNC(=O)CCC(=O)O)cc1 | 167 to 169
5 | CNc1cc(Cl)ncn1 | 138 to 140
6 | CC(C)(C)OC(=O)N1CCN(CC(=O)O)C(=O)C1 | 149 to 151
7 | Cc1ccc(C(=O)NN)c(O)c1 | 173 to 175
8 | N#Cc1ccc(Cl)cc1[N+](=O)[O-] | 95 to 100
9 | Cc1noc(N)n1 | 161 to 163
10 | CCCSc1nsc(N)n1 | 54 to 56
11 | O=C(O)C1COc2ccccc21 (configuration not stated) | 101 to 103
12 | Cc1nc2ccccc2c(=O)n1-c1ccc(C(=O)O)cc1 | 220 to 222
13 | COC(=O)C(C)Cn1cc(Br)cn1 (configuration not stated) | 43 to 45
14 | CC(=O)c1ccc(S(C)(=O)=O)c(F)c1 | 103 to 105
15 | CC(=O)Nc1cccc(C(=O)O)n1 | 226 to 228
16 | Cc1ccc(-c2nnc(S)o2)cc1C | 195 to 197
17 | CCC(Nc1ccccc1)C(=O)O (configuration not stated) | 139 to 141
18 | Cc1cc(C=O)c(C)[nH]1 | 139 to 141
19 | O=C1C=CC(=O)N1C1CCOCC1 | 169 to 171
20 | Cc1[nH]c2ccccc2c1C1CCNCC1 | 222 to 224
21 | N#Cc1ccc(NC(=O)OCC(F)(F)F)cc1 | 143 to 145
22 | CCC(CO)NC(=O)Cc1ccc(N)cc1 (configuration not stated) | 107 to 109
23 | COc1ccccc1N(C)S(=O)(=O)c1ccc(Cl)c(C(=O)O)c1 | 179 to 181
24 | CC(=O)Nc1ccc(S(=O)(=O)NCc2ccc(C(=O)O)cc2)cc1 | 269 to 271

Row | Structure (SMILES) | melting point [°C]
25 | Nc1nc(-c2ccccc2Cl)c(-c2ccccc2Cl)s1 | 198 to 200
26 | CCOC(=O)c1c(C)n(C2CCCCC2)c2ccc(O)cc12 | 247 to 249
27 | CNC(=S)NCCN1CCOCC1 | 103 to 105
28 | OCc1ccc(Br)cc1Cl | 70 to 72
29 | N#Cc1cnc2c(OC(F)F)cccc2c1Cl | 120 to 122
30 | O=C(Cc1ccccn1)c1ccc(Cl)cc1 | 99 to 101
31 | COc1cccc(-c2noc(CCl)n2)c1 | 38 to 40
32 | COc1nc2ccccc2cc1/C=C/C(=O)O | 219 to 221
33 | COCCNS(=O)(=O)c1cc(C(=O)O)ccc1OC | 183 to 185
34 | Cc1nnc(NC(=O)CCl)s1 | 230 to 232
35 | COc1ccc(-n2c(S)nnc2-c2ccncc2)cc1 | 242 to 244
36 | CC(C)(C)C(=O)Nc1ccc(C(=O)CCl)cc1 | 132 to 134
37 | O=C(Nc1ccc(OC(F)(F)F)cc1)OCC(F)(F)F | 64 to 66
38 | Cc1ccccc1C1CC1C(=O)O (configuration not stated) | 64 to 66
39 | COc1ccc(C2C(C(N)=O)CC(=O)N2C)cc1 (configuration not stated) | 208 to 210
40 | Cn1cc(C(=O)Nc2ccc(O)cc2)cn1 | 231 to 233
41 | CCCCOc1ccc2cc(C(=O)O)[nH]c2c1 | 173 to 175
42 | Sc1nc(-c2ccccc2)c[nH]1 | 262 to 264
43 | Nc1cc(CC2CCCCC2)no1 | 106 to 108
44 | CCOC(=O)c1c(CC(C)C)csc1NC(=O)CCl | 98 to 100
45 | Cc1nn(-c2cccc(F)c2)c(C(F)F)c1C(=O)O | 187 to 189
46 | CC(=O)c1nc2ccccc2n1C(F)F | 65 to 67
47 | Nc1c(C(=O)N2CCOCC2)oc2ccccc12 | 123 to 125
48 | Cc1ccc(C2CNCCO2)c(C)c1 (configuration not stated) | 49 to 51

Row | Structure (SMILES) | melting point [°C]
49 | Cc1cc(S(=O)(=O)Cl)cnc1Cl | 54 to 56
50 | COc1ccccc1CNC(=O)CCl | 94 to 96
51 | O=C(O)c1cnc2c(c1)c(=O)[nH]c(=O)n2Cc1ccccc1 | 278 to 280
52 | COc1cc(C(=O)O)ccc1OCc1ccccn1 | 149 to 151
53 | CCOC(=O)c1sc2nc(CCl)[nH]c(=O)c2c1C | 190 to 192
54 | CCOC(=O)Nc1nnc(S)s1 | 205 to 207
55 | Cc1nc2n(c1CN1CCNCC1)CCCC2 | 111 to 113
56 | O=C(O)/C=C/c1ccc(OCc2ccccn2)cc1 | 210 to 212
57 | COc1cc(C)nc(CO)c1 | 69 to 71
58 | ClCc1ccnc(-c2ccc(Br)cc2)n1 | 126 to 128
59 | OCCOc1ccc(Br)cn1 | 51 to 53
60 | COc1cccc(NC(=O)OCC(F)(F)F)c1 | 58 to 60
61 | Clc1ccc(NCCc2ccccc2)nn1 | 159 to 161
62 | COc1ccc(CC(N)=NO)cc1 | 109 to 111
63 | COC(=O)c1c(-c2ccc(F)cc2)csc1N | 135 to 137
64 | COC(=O)c1c(F)cc(C#N)cc1F | 111 to 113
65 | NC(CC1C(=O)Nc2ccccc21)=NO (configuration not stated) | 183 to 185
66 | O=C1C(Br)CCN1c1ccc(Cl)c(F)c1 (configuration not stated) | 94 to 96
67 | O=C1CCS(=O)(=O)c2c(F)cccc21 | 181 to 183
68 | CC(C)(C)C(O)C(=O)O (configuration not stated) | 65 to 67
69 | CCc1ccc(C(=O)CCl)s1 | 52 to 54
70 | Cc1ccc(NC(=O)OCC(F)(F)F)s1 | 73 to 75
71 | Cc1cc(N)n(-c2ccccn2)n1 | 102 to 104
72 | CN(C)S(=O)(=O)c1ccc(Cl)c(C(=O)NCCCCCC(=O)O)c1 | 84 to 86
